Reference: ChEMBL document CHEMBL1142840, “4-Phenylcoumarins as HIV transcription inhibitors” (Bioorg Med Chem Lett, 2005)

Assays:
[1] = test system: HeLa; test: Anti-HIV activity (at 50 uM) against human HeLa-Tat-Luc cells transfected with HIV-1 LTR activated by Tat protein; format: functional
[2] = test system: MT2; test: Toxicity of compound against human MT-2 cell line at the concentration of 50 uM; format: functional
[3] = test system: HeLa; test: Anti-HIV activity (at 50 uM) against human HeLa cells through a HeLa-Tet-ON assay; U= unspecific; format: functional, cell-based
[4] = Anti-HIV activity (at 50 uM) against Jurkat-derived 5.1 cell line stably transfected with HIV-LTR activated by TNF alpha; format: functional
[5] = target: Human immunodeficiency virus type 1 reverse transcriptase (Human immunodeficiency virus 1, UniProt Q72547); test: Inhibitory concentration against recombinant human immunodeficiency virus 1 reverse transcriptase
[6] = test system: HeLa; test: Anti-HIV activity (at 50 uM) against human HeLa cells through a HeLa-Tet-ON assay; S= specific; format: functional, cell-based
[7] = test system: HeLa; test: Anti-HIV activity (at 25 uM) against human HeLa-Tat-Luc cells transfected with HIV-1 LTR activated by Tat protein; format: functional
[8] = Anti-HIV activity (at 25 uM) against Jurkat-derived 5.1 cell line stably transfected with HIV-LTR activated by TNF alpha; format: functional
[9] = test system: HeLa; test: Anti-HIV activity (at 50 uM) against human HeLa cells through a HeLa-Tet-ON assay; U= specific; format: functional, cell-based

Compound | inhibition at 50 µM [1] [%] | Cell death [2] [%] | inhibition [3] | inhibition at 50 µM [4] [%] | IC50 [5] [µM] | inhibition [6] | inhibition at 25 µM [7] [%] | inhibition at 25 µM [8] [%] | Inhibition [8] [%] | inhibition [9]
CCC(C)C(=O)c1c(O)c(CC=C(C)C)c2oc(=O)cc(-c3ccccc3)c2c1O (stereo not drawn) | 86.7 | 28.8 | Unspecific | 85.2 | – | – | – | – | – | –
COc1c(C(=O)CC(C)C)c(O)c(CC=C(C)C)c2oc(=O)cc(-c3ccccc3)c12 | 13.5 | 4.8 | – | 43.6 | 22.2 | – | – | – | – | –
CC(C)=C(O)Cc1c(O)c(C(=O)CC(C)C)c(O)c2c(-c3ccccc3)cc(=O)oc12 | 70.4 | 18.5 | – | 53.1 | 0.5 | Specific | 43.6 | 55.4 | – | –
CC(C)=CCc1c(O)cc(O)c2c(-c3ccccc3)cc(=O)oc12 | 15.4 | 34.4 | – | 84.5 | 11.2 | – | – | 33.4 | – | –
CC(C)=CCc1c(O)c(C(O)CC(C)C)c(O)c2c(-c3ccccc3)cc(=O)oc12 (stereo not drawn) | 47.6 | 8 | Unspecific | 60 | – | – | – | – | – | –
CC1CN(C2CC(N=[N+]=[N-])[C@@H](CO)C2)C(=O)NC1=O (stereo partly drawn) | – | >100 | – | – | 0.01 | – | – | – | – | –
CC(C)CC(=O)c1c2c(c3oc(=O)cc(-c4ccccc4)c3c1O)C[C@@H](C(C)(C)O)O2 [CYCLOMAMMEISIN] | 22 | 34.1 | Unspecific | 86.3 | – | – | – | 66.9 | – | –
CC(C)CC(=O)c1c(O)cc(O)c2c(-c3ccccc3)cc(=O)oc12 [ISODISPAR B] | 69.4 | 17.2 | – | 85.6 | 6.9 | Specific | 42 | 81 | – | –
CC(C)=CCc1c(O)c(C(=O)C(C)C)c2oc(=O)cc(-c3ccccc3)c2c1O [ISOMESUOL] | 34.3 | 11.5 | – | 67.1 | 31.9 | Specific | 36.7 | 67 | – | –
CC(C)CC(=O)c1c2c(c3oc(=O)cc(-c4ccccc4)c3c1O)C=CC(C)(C)O2 [MAMMEIGIN] | 3 | 4.7 | – | 15.7 | 124 | – | 2 | 5.9 | – | –
CC(=O)Oc1c(C(=O)CC(C)C)c(OC(C)=O)c2c(-c3ccccc3)cc(=O)oc2c1CC=C(C)C [MAMMEISIN DIACETATE] | 50.4 | 15.7 | Unspecific | 81.1 | – | – | – | – | – | –
CC(C)=CCc1c(O)c(C(=O)CC(C)C)c(O)c2c(-c3ccccc3)cc(=O)oc12 [MAMMEISIN] | 53.1 | 16.6 | Unspecific | 58.8 | – | – | – | – | – | –
CC(C)C(=O)c1c2c(c3oc(=O)cc(-c4ccccc4)c3c1O)C=CC(C)(C)O2 [MESUAGIN] | 0 | 4.5 | – | 20.2 | 32.1 | – | 0 | 10.8 | – | –
CC(C)C(=O)c1c2c(c3oc(=O)cc(-c4ccccc4)c3c1O)C[C@@H](C(C)(C)O)O2 [MESUOL CYCLO F] | 59.5 | 79.5 | Unspecific | 59.4 | – | – | – | – | – | –
CC(C)=CCc1c(O)c(C(=O)C(C)C)c(O)c2c(-c3ccccc3)cc(=O)oc12 [MESUOL] | 71.3 | 22.5 | Unspecific | 77.9 | 2.5 | – | 11.5 | 67.1 | 71 | Specific
